System: T1, Tg_chitinase
T1 construct: gene TGME49_286465
Experiment: colorimetric p-nitrophenol release at […] nm, non-linear regression
Assay type: biochemical, Toxoplasma gondii
Conditions: substrate 0.01 to 0.1 mM; general assay 0.1 M sodium acetate buffer, 37°C; pH 4.0 and 50°C are the optima listed beside the Km

With `CC(=O)N[C@H]1[C@H](Oc2ccc([N+](=O)[O-])cc2)O[C@H](CO)[C@@H](O)[C@@H]1O` [pNPGlcNAc] the Km was 340 µM.

— PMC4684212, “Toxoplasma gondii Chitinase Induces Macrophage Activation” (PLoS ONE, 2015)
